Results: US10188633B2, “Identification of small molecules that facilitate therapeutic exon skipping” (The Regents of the University of California, priority 2011, dated 2019)

Assays:
[1] = tested on: human DMD exon 50 GFP based reporter; assay: BioMol high throughput screen in Ex50-GFP reporter C2C12 myoblasts, with or without AON6; assay type: cell-based, mouse
[2] = tested on: exon skipping; assay: Counter screens, 16 point titrations and mdx mouse myotubes (validation of lead hits); assay type: cell-based
Source text: The cell line, which was adapted to allow the screening of thousands of compounds in multiple replicates, was obtained from Dr. Qi Lu. […]

[3] = tested on: mdx mice; assay: Taut wire test (wire hang) in mdx mice, weekly AO with daily dantrolene; assay type: in vivo, mouse; details: 10 mg/kg/week AO with dantrolene 10 mg/kg/day versus AO alone, Day 18, p=0.022
Procedure: Weekly systemic doses of saline, 10 mg/kg of morpholino M23D (+07-18) was administered intravascularly on Day 1, 8, and 15. Dantrolene or carrier (20% DMSO in saline) was administered intraperitoneally at a dose of 10 mg/kg/day in two divided doses daily. On Day 18 functional improvement was blindly assessed by using the taut wire test. Latency to fall (in seconds) was recorded for five consecutive trials, with a one minute break occurring in between each trial. Plotted is first the average across five trials, and then the normalized average (seconds/grams) across experimental groups. Error bars represent the s.e.m.

[4] = long term administration; cited from earlier work

In the case of O=C1CN(/N=C/c2ccc(-c3ccc([N+](=O)[O-])cc3)o2)C(=O)N1 [DANTROLENE], the “Average Fluorescence (n = 3)” value [1] was 18.20, the “Fluorescence Plate 1” value [1] was 16.32 and the “Fluorescence Plate 2” value [1] was 11.76. The “Fluorescence Plate 3” value [1] was 26.51, the “activity in the −AO screen” value [1] was “indistinguishable from the DMSO controls” and the “exon skipping activity in the screen +AO” value [1] was “enhanced exon skipping activity”. For the same molecule, the “efficacy in counter screen and on mdx mouse myotubes” value [2] was “showing efficacy in counter screen and on mdx mouse myotubes”, the “taut wire test, latency to fall (muscle strength)” value ([3]; listed as Dantrolene) was “significantly increased ability of mdx mice to hang on wire” and the “taut wire test, latency to fall (muscle strength)” value ([3]; listed as dantrolene) was “functional benefit”. The “dose shown to be safe in humans” value [4] was “up to 8 mg/kg/day”.
